Results as given in patent publication US20080293785A1, “SUBSTITUTED BENZOTHIAZOLE KINASE INHIBITORS” (priority 2006, published 2008).
pIC50: −log10 of the molar value. Where two headings read alike, the source gives them in different places.

Tests used:
[1] = system: HeLa cervical adenocarcinoma; assay: Inhibition of cell proliferation (14C-thymidine incorporation), HeLa; assay type: cell-based
Description: (§1) The ability of a test compound to inhibit the proliferation of cell growth was determined by measuring incorporation of ^14C-labelled thymidine into newly synthesized DNA within the cells. This method was used on American Type Culture Collection (ATCC, Virginia) cell lines derived from carcinomas originating from several tissues such as HeLa cervical adenocarcinoma (ATCC Cat. #CCL-2), A375 malignant melanoma (ATCC Cat. #CRL-1619) and HCT-116 colon carcinoma (ATCC Cat. #CCL-247).
(§2) The carcinoma cells were trypsinized and counted. The cells (3000-8000 count) were added to each well of a 96-well CytoStar tissue culture treated scintillating microplate (Amersham #RPNQ0160) in complete medium (100 μL) and the plate was incubated in complete medium for 24 hrs at 37° C. in an […] containing 5% CO2.
Test compound (1 μL) in 100% DMSO was added to the plate test-wells with DMSO only added to control-wells. The plate is incubated in complete medium for a second 24 hr period at 37° C. in an atmosphere containing 5% CO2.
An aliquot of a solution of Methyl ^14C-thymidine (56 mCi/mmol) (NEN #NEC568 or Amersham #CFA532) in complete medium (20 uL to provide […]) was also added to each well and the plate was incubated for a third 24 hr period at 37° C. in an atmosphere containing 5% CO2.
The plate contents were discarded and the plate was washed twice with PBS (200 μL), then PBS (200 μL) was added to each well. The plate was sealed and the degree of methyl ^14C-thymidine incorporation is quantified on a Packard Top Count.
An IC50 value shown as >10 or >100 means that 50% inhibition was not observed at the highest concentration.

VEGF-R2 kinase domain = VEGF-R2 kinase domain (Rattus norvegicus, UniProt O08775); assay: VEGF-R2 Screening Assay; assay type: biochemical; settings: 10 μM ATP, biotinylated PLC1 peptide substrate, 33P-γ-ATP FlashPlate; read-out: Kinase IC50 VEGFR
VEGF-R2 kinase domain, sequence (O08775 786-1343): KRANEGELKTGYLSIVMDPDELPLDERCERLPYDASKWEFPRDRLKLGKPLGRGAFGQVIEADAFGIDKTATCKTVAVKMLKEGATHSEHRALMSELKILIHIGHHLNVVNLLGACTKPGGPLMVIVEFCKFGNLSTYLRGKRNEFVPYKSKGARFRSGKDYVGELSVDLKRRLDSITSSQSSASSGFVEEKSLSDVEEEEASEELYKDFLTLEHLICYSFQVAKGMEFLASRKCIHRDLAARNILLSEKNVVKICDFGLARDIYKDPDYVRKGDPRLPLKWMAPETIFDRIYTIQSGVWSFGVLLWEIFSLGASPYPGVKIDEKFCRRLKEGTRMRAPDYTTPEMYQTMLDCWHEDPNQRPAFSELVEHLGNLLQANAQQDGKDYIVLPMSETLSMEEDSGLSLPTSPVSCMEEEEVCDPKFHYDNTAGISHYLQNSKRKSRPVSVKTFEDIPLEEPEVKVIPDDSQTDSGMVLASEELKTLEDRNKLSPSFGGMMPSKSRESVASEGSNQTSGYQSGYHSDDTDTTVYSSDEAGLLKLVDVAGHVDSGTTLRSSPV
Description: (§3) A kinase reaction mixture was prepared containing 50 mM Tris.HCl pH=8, 10 mM MgCl2, 0.1 mM Na3PO4, 1 mM DTT, 10 μM ATP, 0.025 μM biotinylated peptide substrate and 0.8 μCuries per well ^33P-γ-ATP (2000-3000 Ci/mmol). 70 μL of the kinase reaction mixture was dispensed into the well of a streptavidin coated FlashPlate™ (Cat. # SMP103, NEN, Boston, Mass.). Then 1 μL of test compound stock in 100% DMSO was added to the wells resulting in a final concentration of 1% DMSO in the reaction well with a 100 μL final reaction well volume.
The soluble rat tyrosine kinase containing an N-terminal 6×HIS tag was diluted in 50 mM Tris.HCl pH=8.0, 0.1% BSA at a concentration of 5 ng per μL and 30 μL (150 ng enzyme per test well) was added to each well to initiate the reaction. The reaction was incubated for one hour at 30° C. At the end of the one hour incubation, the reaction was terminated by aspirating the reaction mixture from the plate and washing the wells twice with PBS containing 100 mM EDTA. The PLC1 biotinylated peptide substrate became immobilized on the Flashplate™ and the incorporation of ^33P-γ-ATP was measured by reading the plate on a scintillation counter. Inhibition of the enzymatic activity of the VEGF-R was measured by observing a reduced amount of ^33P-γ-ATP incorporated into the immobilized peptide.
The VEGF-R kinase assay was carried out using the CDK kinase assay procedure except that the enzyme was replaced with the VEGF-R2 fusion protein containing a polyhistidine tag at the N-terminus followed by amino acids 786-1343 of the rat VEGF-R2 kinase domain (GenBank Accession #U93306).
(§4) An IC50 listed as >0.1, >1, >10 or >100 means no observed 50% inhibition at the indicated test concentration. […] ND means the compound was not tested in the assay specified.

CDK2:Cyclin A = molecular target: T1, CDK2:Cyclin A (Homo sapiens, UniProt P24941); assay: CDK2 Screening Assay; assay type: biochemical; settings: 10 μM ATP, biotinylated histone-H1 peptide substrate, 33P-γ-ATP FlashPlate; read-out: Kinase IC50 CDK2
T1 construct: purchased Upstate Biotech, Lake Placid, N.Y
Description: as §3, with “biotinylated histone-H1” for “biotinylated”, “0.2” for “0.8”
(§5) The CDK2:Cyclin A protein was diluted in 50 mM Tris.HCl pH=8.0, 0.1% BSA at a concentration of 1 ng per μL and 30 μL (30 ng enzyme per test well) was added to each well to initiate the reaction. The reaction was incubated for one hour at 30° C. At the end of the one hour incubation, the reaction was terminated by aspirating the mixture from the plate and washing the wells twice with PBS containing 100 mM EDTA. The histone-H1 biotinylated peptide substrate became immobilized on the Flashplate™ and the incorporation of ^33P-γ-ATP was measured by reading the plate on a scintillation counter. Inhibition of the enzymatic activity of CDK2 was measured by observing a reduced amount of ^33P-γ-ATP incorporated into the immobilized peptide.
The CDK2 kinase used was complexed with cyclin A and is commercially available (Upstate Biotech, Lake Placid, N.Y.).
as §4

CDK1:Cyclin-B = molecular target: T2, CDK1:Cyclin-B (Homo sapiens, UniProt P06493); assay: CDK1 Screening Assay; assay type: biochemical; settings: 10 μM ATP, biotinylated histone-H1 peptide substrate, 33P-γ-ATP FlashPlate; read-out: Kinase IC50 CDK1
T2 construct: purchased New England Biolabs, Beverly, Mass; 6020; host or cells: insect cells
T2 sequence (P06493 whole entry): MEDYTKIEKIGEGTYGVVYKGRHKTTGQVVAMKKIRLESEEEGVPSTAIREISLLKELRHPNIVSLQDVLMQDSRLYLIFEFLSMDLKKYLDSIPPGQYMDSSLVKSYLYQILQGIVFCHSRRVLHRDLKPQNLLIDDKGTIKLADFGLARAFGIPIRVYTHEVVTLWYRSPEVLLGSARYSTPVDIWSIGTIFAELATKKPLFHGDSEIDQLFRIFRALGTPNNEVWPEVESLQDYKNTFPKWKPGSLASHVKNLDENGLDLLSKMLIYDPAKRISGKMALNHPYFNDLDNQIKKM
T2 sequence (P14635 whole entry partner): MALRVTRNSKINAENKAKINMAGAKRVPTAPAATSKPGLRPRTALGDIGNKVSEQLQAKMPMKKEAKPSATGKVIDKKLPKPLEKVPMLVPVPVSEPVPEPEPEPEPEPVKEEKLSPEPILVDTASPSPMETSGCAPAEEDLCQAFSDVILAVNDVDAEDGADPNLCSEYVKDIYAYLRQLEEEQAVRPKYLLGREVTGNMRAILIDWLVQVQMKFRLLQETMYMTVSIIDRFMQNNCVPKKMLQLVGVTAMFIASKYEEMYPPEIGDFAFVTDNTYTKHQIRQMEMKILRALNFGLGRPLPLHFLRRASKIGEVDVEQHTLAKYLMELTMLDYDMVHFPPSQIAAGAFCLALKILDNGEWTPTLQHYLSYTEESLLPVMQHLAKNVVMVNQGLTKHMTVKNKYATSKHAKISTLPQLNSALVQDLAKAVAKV
Description: as §3, with “biotinylated histone-H1” for “biotinylated”, “0.2” for “0.8”
as §5, with “CDK1:Cyclin-B” for “CDK2:Cyclin A”, “CDK1” for “CDK2”
The CDK1 kinase used was isolated from insect cells expressing both the human CDK1 catalytic subunit and its positive regulatory subunit cyclin B (New England Biolabs, Beverly, Mass., Cat. # 6020).
as §4

A375 malignant melanoma = assay: Inhibition of cell proliferation (14C-thymidine incorporation), A375; assay type: cell-based; settings: Homo sapiens, A-375; A375, 14C-thymidine incorporation
Description: as §1, §2
(§6) Test compound (1 μL) in 100% DMSO was added to the plate test-wells with DMSO only added to control-wells. The plate is incubated in complete medium for a second 24 hr period at 37° C. in an atmosphere containing 5% CO2. […]
(§7) The plate contents were discarded and the plate was washed twice with PBS (200 μL), then PBS (200 μL) was added to each well. The plate was sealed and the degree of methyl ^14C-thymidine incorporation is quantified on a Packard Top Count. […]

HCT-116 colon carcinoma = assay: Inhibition of cell proliferation (14C-thymidine incorporation), HCT116; assay type: cell-based; settings: Homo sapiens, HCT116, 14C-thymidine incorporation
Description: as §1, §2, §6, §7

| Molecule | pIC50 ([1]; Homo sapiens) | pIC50 (VEGF-R2 kinase domain) | pIC50 (CDK2:Cyclin A) | pIC50 (CDK1:Cyclin-B) | pIC50 [1] | pIC50 (A375 malignant melanoma) | pIC50 (HCT-116 colon carcinoma) |
| --- | --- | --- | --- | --- | --- | --- | --- |
| O=C(Nc1ccc(Cl)c(Cl)c1)Nc1cccc2nc(Nc3ccccc3)sc12 [Cpd 4, 1-(3,4-dichloro-phenyl)-3-(2-phenylamino-benzothiazol-7-yl)-urea] | < 5.00 | < 4.00 | < 4.00 | < 4.00 |  |  |  |
| O=C(Nc1ccccc1)Nc1cccc2sc(Nc3ccccc3)nc12 [Cpd 5, 1-phenyl-3-(2-phenylamino-benzothiazol-4-yl)-urea] | < 5.00 | < 4.00 | < 4.00 | < 4.00 |  |  |  |
| O=C(Nc1ccc2nc(Nc3ccccc3)sc2c1)Nc1c(F)cccc1F [Cpd 2, 1-(2,6-difluoro-phenyl)-3-(2-phenylamino-benzothiazol-6-yl)-urea] | < 4.00 | < 4.00 | < 4.00 | < 4.00 |  |  |  |
| 1-(2,6-difluoro-phenyl)-3-(2-phenylamino-benzothiazol-7-yl)-urea [Cpd 1] |  | ~4.00 | < 4.00 | < 4.00 | < 5.00 |  |  |
| O=C(Nc1ccccc1)Nc1cccc2nc(Nc3ccccc3)sc12 [Cpd 3, 1-phenyl-3-(2-phenylamino-benzothiazol-7-yl)-urea] | < 5.00 | < 4.00 | < 4.00 | < 4.00 |  |  |  |
| Cc1ccc(F)c(C(=O)Nc2cccc3sc(Nc4ccccc4)nc23)c1F [Cpd 48, 2,6-difluoro-3-methyl-N-(2-phenylamino-benzothiazol-4-yl)-benzamide] | 4.69 | 5.34 | 6.81 | 5.81 |  | 4.98 | 5.30 |
| O=C(Nc1c(F)cccc1F)Nc1cccc2sc(Nc3ccccc3)nc12 [Cpd 6, 1-(2,6-difluoro-phenyl)-3-(2-phenylamino-benzothiazol-4-yl)-urea] | 4.14 | < 4.00 | 5.24 | < 4.00 |  |  |  |
| O=C(Nc1cccc2sc(Nc3ccccc3)nc12)c1c(F)cc(F)cc1F [Cpd 45, 2,4,6-trifluoro-N-(2-phenylamino-benzothiazol-4-yl)-benzamide] |  | < 4.00 | 5.78 | < 5.00 |  |  |  |
